Experimental data published in paper PMC10672842, “Anti-Trypanosoma cruzi Activity, Mutagenicity, Hepatocytotoxicity and Nitroreductase Enzyme Evaluation of 3-Nitrotriazole, 2-Nitroimidazole and Triazole Derivatives” (Molecules, 2023).
Like-named read-outs stand apart in the source and are kept apart here.

Assays:
[1] = test system: S. typhimurium TA1535
[2] = test system: T. cruzi nitroreductase enzyme (TcNTR); assay: Kinetic assay with Trypanosoma cruzi nitroreductase enzyme (NADH oxidation); type: biochemical
Method: To determine a potential mechanism of action, nitroazole derivatives 5, 6, 8 and 9 were evaluated as substrates of the T. cruzi nitroreductase enzyme (TcNTR) and compared to BZN, the reference prodrug (Table 2). The enzymatic activity was measured by monitoring the oxidation of NADH, the first substrate of the enzyme, via spectrophotometric assays. […] At a concentration of 25 µM, derivatives 5 and 8 were metabolized at rates 2.3 and 2.6 times higher than that of BZN, respectively. At 50 µM, the compounds presented metabolism rates 1.6 and 3.0 times higher than that of BZN, respectively.
The protocols for expressing, purifying and conducting kinetic analysis with the recombinant TcNTR enzyme were adapted from the methods originally developed by Shane Wilkinson, with certain modifications.
For the kinetics assays, it was prepared a 200 μL solution which included 50 mM Tris-Base at pH 7.5, with a constant concentration of both NADH (50 μM) and the substances 5, 6, 8, 9 or BZN. Specifically, two distinct fixed concentrations (25 and 50 μM) of the substances 5, 6, 8, 9 or BZN were tested. These prepared mixtures were then incubated for 5 min at room temperature. Subsequently, the reaction was initiated by adding NTR to achieve a final concentration of 10 μg/mL. The reaction rates were monitored using a Hitachi U-2900 spectrophotometer, measuring the consumption of the primary substrate, NADH (λ = 340 nm; ε = 6.220 M^−1 cm^−1), over a 2-min interval. The resulting data curves were analyzed through linear regression using OriginPro 2016 software. To evaluate the reaction rate (Kobs) obtained from the 25 and 50 μM concentrations of each substrate, comparisons were made with the reference values for BZN. Measurement errors were calculated using the formula: Error = Z × σ/√n, where ‘Z’ denotes the critical value, ‘σ’ represents the standard deviation and ‘n’ is the number of test measurements, which were performed at least in triplicate.

[3] = test system: S. typhimurium TA100
Method: (§1) The compounds were tested in a reverse mutation assay preincubation protocol in the absence and presence of metabolic activation following standard protocols previously proposed by Maron and Ames. The histidine-dependent (his^−) strains TA98 and TA100 of Salmonella typhimurium were inoculated in 10 mL of Oxoid nutrient broth No. 2 containing 25 µg/mL ampicillin and incubated overnight (15–18 h) at 37 ± 1 °C on an orbital shaker (CT-712, Cientec, Belo Horizonte, MG, Brazil) at 150 rpm, obtaining a concentration of 1–2 × 10^9 cells/mL, confirmed by titration in nutrient agar plates. Briefly, 100 µL of stationary growth cultures of each strain were preincubated for 20 min on an orbital shaker (150 rpm) at 37 ± 1 °C, with 500 µL of 0.2 M phosphate buffer pH 7.4, or 500 µL of S9 mix 4% (Molecular Toxicology, Baltimore, MD, USA), and 100 µL of compound dilutions (0–5000 µM) or controls. DMSO 1% was used as a negative control. […] After incubation, 2 mL of top agar (0.7% agar, 0.5% NaCl, 0.05 mM L-histidine and D-biotin) at 45 ± 3 °C was added and gently mixed. The final mixture was poured on glucose minimal agar plates (1.5% agar, 10 g/L MgSO4·7H2O; 100 g/L of C6H8O7·H2O; 500 g/L K2HPO4; 175 g/L Na(NH4)HPO4·4H2O, 2% glucose) and incubated for 72 h at 37 ± 1 °C. The results were expressed as the mean of revertant colonies (His^+) per plate, standard deviation (SD) and mutagenicity induction fold (IF), calculated as the ratio between the number of colonies in the test group and the number of colonies in the negative control group. Mutagenic potency was calculated as the slope of the linear portion of the concentration–response function and expressed as revertants/µM. All assays were performed in triplicate and repeated at least two times. Statistical analyses were carried out in GraphPad Prism software (version 5.00, GraphPad Software, Boston, MA, USA).

[4] = test system: S. typhimurium TA98; assay: Salmonella reverse mutation assay (Ames test, preincubation), TA98
Method: as §1

SMILES: O=[N+]([O-])c1nccn1CC(O)c1ccc(F)cc1F (stereo not shown) [Compound 9, 1-(2,4-Difluorophenyl)-2-(2-nitro-1H-imidazol-1-yl)ethanol]
- IF (induction factor) ([1]; TA1535, +S9, 0.5 µM): 1.3
- revertant His+ colonies, mean ± SD ([1]; TA1535, +S9, 0.5 µM): 14 ± 2
- IF (induction factor) ([1]; TA1535, +S9, 5 µM): 2.1
- revertant His+ colonies, mean ± SD ([1]; TA1535, +S9, 5 µM): 23 ± 1
- IF (induction factor) ([1]; TA1535, +S9, 50 µM): 2.2
- revertant His+ colonies, mean ± SD ([1]; TA1535, +S9, 50 µM): 24 ± 1
- revertant His+ colonies, mean ± SD ([1]; TA1535, +S9, 500 µM): Cytotoxic
- Mutagenicity in the Ames test (verdict) ([1]; TA1535, absence or presence of metabolic activation): mutagenic
- IF (induction factor) ([1]; TA1535, −S9, 0.5 µM): 1.8
- revertant His+ colonies, mean ± SD ([1]; TA1535, −S9, 0.5 µM): 14 ± 1
- IF (induction factor) ([1]; TA1535, −S9, 5 µM): 1.8
- revertant His+ colonies, mean ± SD ([1]; TA1535, −S9, 5 µM): 14 ± 4
- IF (induction factor) ([1]; TA1535, −S9, 50 µM): 2.8
- revertant His+ colonies, mean ± SD ([1]; TA1535, −S9, 50 µM): 22 ± 1
- IF (induction factor) ([1]; TA1535, −S9, 500 µM): 2.0
- revertant His+ colonies, mean ± SD ([1]; TA1535, −S9, 500 µM): 16 ± 3
- revertant His+ colonies, mean ± SD ([1]; TA1535, −S9, 5000 µM): Cytotoxic
- Kobs Deriv./Kobs BZN 25 µM ([2]; 25 µM derivative, ratio of mean Kobs to BZN): 0.8
- consumption rate by TcNTR, times higher than that of 6 ([2]; 50 µM): 4.9
- Kobs Deriv./Kobs BZN 50 µM ([2]; 50 µM derivative, ratio of mean Kobs to BZN): 1.2
- Mutagenic potency (slope of the linear portion of the concentration–response function) ([3]; TA100, +S9): 292.1 revertants/µM
- IF (induction factor) ([3]; TA100, +S9, 0.5 µM): 1.5
- revertant His+ colonies, mean ± SD ([3]; TA100, +S9, 0.5 µM): 159 ± 7
- IF (induction factor) ([3]; TA100, +S9, 5 µM): 2.1
- revertant His+ colonies, mean ± SD ([3]; TA100, +S9, 5 µM): 218 ± 14
- IF (induction factor) ([3]; TA100, +S9, 50 µM): 2.2
- revertant His+ colonies, mean ± SD ([3]; TA100, +S9, 50 µM): 233 ± 48
- IF (induction factor) ([3]; TA100, +S9, 500 µM): 9.7
- revertant His+ colonies, mean ± SD ([3]; TA100, +S9, 500 µM): 1025 ± 16
- IF (induction factor) ([3]; TA100, +S9, 5000 µM): 11.5
- revertant His+ colonies, mean ± SD ([3]; TA100, +S9, 5000 µM): 1216 ± 113
- Mutagenicity in the Ames test (verdict) ([3]; TA100, absence or presence of metabolic activation): mutagenic
- Mutagenic potency (slope of the linear portion of the concentration–response function) ([3]; TA100, −S9): 250.3 revertants/µM
- IF (induction factor) ([3]; TA100, −S9, 0.5 µM): 1.0
- revertant His+ colonies, mean ± SD ([3]; TA100, −S9, 0.5 µM): 73 ± 5
- IF (induction factor) ([3]; TA100, −S9, 5 µM): 1.2
- revertant His+ colonies, mean ± SD ([3]; TA100, −S9, 5 µM): 88 ± 7
- IF (induction factor) ([3]; TA100, −S9, 50 µM): 2.3
- revertant His+ colonies, mean ± SD ([3]; TA100, −S9, 50 µM): 164 ± 16
- IF (induction factor) ([3]; TA100, −S9, 500 µM): 4.9
- revertant His+ colonies, mean ± SD ([3]; TA100, −S9, 500 µM): 347 ± 24
- IF (induction factor) ([3]; TA100, −S9, 5000 µM): 16.7
- revertant His+ colonies, mean ± SD ([3]; TA100, −S9, 5000 µM): 1195 ± 160
- Mutagen classification according to Claxton et al. ([3]; TA100, −S9 and +S9): highly inductive mutagen
- IF (induction factor) ([4]; TA98, +S9, 0.5 µM): 0.8
- revertant His+ colonies, mean ± SD ([4]; TA98, +S9, 0.5 µM): 18 ± 2
- IF (induction factor) ([4]; TA98, +S9, 5 µM): 0.8
- revertant His+ colonies, mean ± SD ([4]; TA98, +S9, 5 µM): 18 ± 2
- IF (induction factor) ([4]; TA98, +S9, 50 µM): 0.9
- revertant His+ colonies, mean ± SD ([4]; TA98, +S9, 50 µM): 22 ± 8
- IF (induction factor) ([4]; TA98, +S9, 500 µM): 1.0
- revertant His+ colonies, mean ± SD ([4]; TA98, +S9, 500 µM): 24 ± 5
- IF (induction factor) ([4]; TA98, +S9, 5000 µM): 1.2
- revertant His+ colonies, mean ± SD ([4]; TA98, +S9, 5000 µM): 28 ± 2
- IF (induction factor) ([4]; TA98, −S9, 0.5 µM): 0.7
- revertant His+ colonies, mean ± SD ([4]; TA98, −S9, 0.5 µM): 18 ± 6
- IF (induction factor) ([4]; TA98, −S9, 5 µM): 0.7
- revertant His+ colonies, mean ± SD ([4]; TA98, −S9, 5 µM): 18 ± 2
- IF (induction factor) ([4]; TA98, −S9, 50 µM): 1.1
- revertant His+ colonies, mean ± SD ([4]; TA98, −S9, 50 µM): 29 ± 3
- IF (induction factor) ([4]; TA98, −S9, 500 µM): 1.8
- revertant His+ colonies, mean ± SD ([4]; TA98, −S9, 500 µM): 49 ± 5
- IF (induction factor) ([4]; TA98, −S9, 5000 µM): 6.5
- revertant His+ colonies, mean ± SD ([4]; TA98, −S9, 5000 µM): 173 ± 21
